From patent US20230406885A1, “CYCLIC PEPTIDES FOR TRAPPING INTERLEUKIN-1 BETA” (MERCK SHARP & DOHME LLC, priority 2022, published 2023)
*1 amine or outer side, *2 acyl side, *3 side chain or, on linkers, in order; H or OH if unused. Where a SMILES comes first, the peptide text is derived from it. [ ]: non-standard residue; d: D form. Phe(4-(trans-4-COOH-cHex)) = N[C@@H](Cc1ccc([C@H]2CC[C@H](C(=O)O)CC2)cc1)C(=O)O; Phe(4-(cis-4-COOH-cHex)) = N[C@@H](Cc1ccc([C@H]2CC[C@@H](C(=O)O)CC2)cc1)C(=O)O; Trp(βS-Me,4-F) = C[C@@H](c1c[nH]c2cccc(F)c12)[C@H](N)C(=O)O; Bip(4'-COOH) = N[C@@H](Cc1ccc(-c2ccc(C(=O)O)cc2)cc1)C(=O)O; X6 = O=C(O)C12CC(c3ccc(C[C@H](N[*:1])C(=O)[*:2])cc3)(C1)C2; X1 = CC(=O)N1CCN(c2ccc(C[C@H](N[*:1])C(=O)[*:2])cn2)CC1; 1Nal(3S-Me) = C[C@@H](c1cccc2ccccc12)[C@H](N)C(=O)O; Ala(indazol-1-yl) = N[C@@H](Cn1ncc2ccccc21)C(=O)O; Trp(6-Cl) = N[C@@H](Cc1c[nH]c2cc(Cl)ccc12)C(=O)O; Phe(4-COOH) = N[C@@H](Cc1ccc(C(=O)O)cc1)C(=O)O; Trp(6-F) = N[C@@H](Cc1c[nH]c2cc(F)ccc12)C(=O)O; Trp(7-F) = N[C@@H](Cc1c[nH]c2c(F)cccc12)C(=O)O; Trp(7-Me) = Cc1cccc2c(C[C@H](N)C(=O)O)c[nH]c12; h3Pal(5-CN) = N#Cc1cncc(CC[C@H](N)C(=O)O)c1; Pro(4R-NH2) = N[C@H]1CN[C@H](C(=O)O)C1; hTyr = N[C@@H](CCc1ccc(O)cc1)C(=O)O; hCha = N[C@@H](CCC1CCCCC1)C(=O)O; 4Pal = N[C@@H](Cc1ccncc1)C(=O)O; Cha = N[C@@H](CC1CCCCC1)C(=O)O; dDab = NCC[C@@H](N)C(=O)O; Nle = CCCC[C@H](N)C(=O)O; dNMeA = CN[C@H](C)C(=O)O

molecular target: T1, Recombinant human IL-1β (Homo sapiens, UniProt P01584); test: IL-6 assay in MRC5 cells: inhibition of IL-1β induced IL-6 secretion (AlphaLISA); type: cell-based; settings: inhibition of IL-1β induced IL-6 secretion in MRC5 cells; read-out: MRC5 IC50
T1 construct: purchased BioLegend 579404
Outline: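 IL-1β at 2×EC80 in seeding medium (EMEM, 0.025% BSA) preincubated 1 h at ambient temperature with compound, then 3000 MRC5 cells/well added and incubated overnight at 37 °C, 5% CO2. IL-6 in conditioned medium quantified by AlphaLISA; IC50 from 4-parameter logistic fit.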

T1 sequence (P01584 117-269): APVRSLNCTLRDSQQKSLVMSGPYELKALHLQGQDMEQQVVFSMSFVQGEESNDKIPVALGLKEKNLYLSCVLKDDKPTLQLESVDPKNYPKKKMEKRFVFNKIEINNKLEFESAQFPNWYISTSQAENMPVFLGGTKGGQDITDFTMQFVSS

| SMILES | IC50 |
| --- | --- |
| CC(=O)N1CCN(c2ccc(C[C@@H]3NC(=O)[C@H](CCc4cncc(C#N)c4)NC(=O)[C@@H](C)NC(=O)[C@H](CC(C)C)NC(=O)[C@H](CCC(N)=O)NC(=O)[C@H](Cc4ccc(-c5ccc(C(=O)O)cc5)cc4)NC(=O)CNC(=O)[C@@H](C)N(C)C(=O)[C@H](CC(=O)O)NC(=O)[C@H]([C@@H](C)c4cccc5ccccc45)NC(=O)[C@@H]4C[C@@H](N)CN4C(=O)CNC(=O)[C@H](Cc4ccc(C(=O)O)cc4)NC(=O)[C@H](Cc4c[nH]c5ccccc45)NC3=O)cn2)CC1 [Example 183] (cyclo([X1]W[Phe(4-COOH)]G[Pro(4R-NH2)][1Nal(3S-Me)]D[dNMeA]G[Bip(4'-COOH)]QL[dA][h3Pal(5-CN)])) | 0.013 nM |
| CC(C)C[C@@H]1NC(=O)[C@H](CCCCN)NC(=O)[C@H](Cc2ccc(-c3ccc(C(=O)O)cc3)cc2)NC(=O)CNC(=O)[C@@H](C)N(C)C(=O)[C@H](CC(=O)O)NC(=O)[C@H]([C@@H](C)c2c[nH]c3cccc(F)c23)NC(=O)[C@@H]2C[C@@H](N)CN2C(=O)CNC(=O)[C@H](Cc2ccc(C(=O)O)cc2)NC(=O)[C@H](Cc2c[nH]c3cc(Cl)ccc23)NC(=O)[C@H](Cc2ccc(-c3ccc(C(=O)O)cc3)cc2)NC(=O)[C@H](CCc2ccc(O)cc2)NC(=O)[C@@H](C)NC1=O [Example 184] (cyclo([Bip(4'-COOH)][Trp(6-Cl)][Phe(4-COOH)]G[Pro(4R-NH2)][Trp(βS-Me,4-F)]D[dNMeA]G[Bip(4'-COOH)]KL[dA][hTyr])) | 0.018 nM |
| CC(C)C[C@@H]1NC(=O)[C@H](CCCCN)NC(=O)[C@H](Cc2ccc(-c3ccc(C(=O)O)cc3)cc2)NC(=O)CNC(=O)[C@@H](C)N(C)C(=O)[C@H](CC(=O)O)NC(=O)[C@H]([C@@H](C)c2c[nH]c3cccc(F)c23)NC(=O)[C@@H]2C[C@@H](N)CN2C(=O)CNC(=O)[C@H](Cc2ccc(C(=O)O)cc2)NC(=O)[C@H](Cc2c[nH]c3c(F)cccc23)NC(=O)[C@H](Cc2ccc(-c3ccc(C(=O)O)cc3)cc2)NC(=O)[C@H](CCc2ccc(O)cc2)NC(=O)[C@@H](C)NC1=O [Example 185] (cyclo([Bip(4'-COOH)][Trp(7-F)][Phe(4-COOH)]G[Pro(4R-NH2)][Trp(βS-Me,4-F)]D[dNMeA]G[Bip(4'-COOH)]KL[dA][hTyr])) | 0.024 nM |
| Cc1cccc2c(C[C@@H]3NC(=O)[C@H](Cc4ccc(-c5ccc(C(=O)O)cc5)cc4)NC(=O)[C@H](CCc4ccc(O)cc4)NC(=O)[C@@H](C)NC(=O)[C@H](CC(C)C)NC(=O)[C@H](CCCCN)NC(=O)[C@H](Cc4ccc(-c5ccc(C(=O)O)cc5)cc4)NC(=O)CNC(=O)[C@@H](C)N(C)C(=O)[C@H](CC(=O)O)NC(=O)[C@H]([C@@H](C)c4c[nH]c5cccc(F)c45)NC(=O)[C@@H]4C[C@@H](N)CN4C(=O)CNC(=O)[C@H](Cc4ccc(C(=O)O)cc4)NC3=O)c[nH]c12 [Example 186] (cyclo([Bip(4'-COOH)][Trp(7-Me)][Phe(4-COOH)]G[Pro(4R-NH2)][Trp(βS-Me,4-F)]D[dNMeA]G[Bip(4'-COOH)]KL[dA][hTyr])) | 0.038 nM |
| CC(=O)NCCCC[C@H]1NC(=O)[C@H](CC(C)C)NC(=O)[C@H](CCCCN)NC(=O)[C@H](Cc2ccc(-c3ccc(C(=O)O)cc3)cc2)NC(=O)CNC(=O)[C@@H](C)N(C)C(=O)[C@H](CC(=O)O)NC(=O)[C@H]([C@@H](C)c2c[nH]c3cccc(F)c23)NC(=O)[C@@H]2C[C@@H](N)CN2C(=O)CNC(=O)[C@H](Cc2ccc(C(=O)O)cc2)NC(=O)[C@H](Cc2c[nH]c3ccccc23)NC(=O)[C@H](Cc2ccc(-c3ccc(C(=O)O)cc3)cc2)NC(=O)[C@H](CCc2ccc(O)cc2)NC1=O [Example 187] (cyclo([Bip(4'-COOH)]W[Phe(4-COOH)]G[Pro(4R-NH2)][Trp(βS-Me,4-F)]D[dNMeA]G[Bip(4'-COOH)]KL[dK](Ac)[hTyr])) | 0.009 nM |
| C[C@@H]1C(=O)NCC(=O)N[C@@H](Cc2ccc(-c3ccc(C(=O)O)cc3)cc2)C(=O)N[C@@H](Cn2ncc3ccccc32)C(=O)NCC(=O)N[C@H](CCN)C(=O)N[C@@H](CCC2CCCCC2)C(=O)N[C@@H](Cc2ccc(C34CC(C(=O)O)(C3)C4)cc2)C(=O)N[C@@H](Cc2c[nH]c3ccccc23)C(=O)N[C@@H](Cc2ccc(C(=O)O)cc2)C(=O)NCC(=O)N2C[C@H](N)C[C@H]2C(=O)N[C@@H]([C@@H](C)c2cccc3ccccc23)C(=O)N[C@@H](CC(=O)O)C(=O)N1C [Example 188] (cyclo([X6]W[Phe(4-COOH)]G[Pro(4R-NH2)][1Nal(3S-Me)]D[dNMeA]G[Bip(4'-COOH)][Ala(indazol-1-yl)]G[dDab][hCha])) | 0.016 nM |
| C[C@@H]1C(=O)NCC(=O)N[C@@H](Cc2ccc(-c3ccc(C(=O)O)cc3)cc2)C(=O)N[C@@H](CC2CCCCC2)C(=O)NCC(=O)N[C@H](CCN)C(=O)N[C@@H](CCC2CCCCC2)C(=O)N[C@@H](Cc2ccc(C34CC(C(=O)O)(C3)C4)cc2)C(=O)N[C@@H](Cc2c[nH]c3ccccc23)C(=O)N[C@@H](Cc2ccc(C(=O)O)cc2)C(=O)NCC(=O)N2C[C@H](N)C[C@H]2C(=O)N[C@@H]([C@@H](C)c2cccc3ccccc23)C(=O)N[C@@H](CC(=O)O)C(=O)N1C [Example 189] (cyclo([X6]W[Phe(4-COOH)]G[Pro(4R-NH2)][1Nal(3S-Me)]D[dNMeA]G[Bip(4'-COOH)][Cha]G[dDab][hCha])) | 0.019 nM |
| C[C@@H]1C(=O)NCC(=O)N[C@@H](Cc2ccc(-c3ccc(C(=O)O)cc3)cc2)C(=O)N[C@@H](CC2CCCCC2)C(=O)NCC(=O)N[C@H](CCN)C(=O)N[C@@H](CCc2ccc(O)cc2)C(=O)N[C@@H](Cc2ccc(C34CC(C(=O)O)(C3)C4)cc2)C(=O)N[C@@H](Cc2c[nH]c3ccccc23)C(=O)N[C@@H](Cc2ccc(C(=O)O)cc2)C(=O)NCC(=O)N2C[C@H](N)C[C@H]2C(=O)N[C@@H]([C@@H](C)c2cccc3ccccc23)C(=O)N[C@@H](CC(=O)O)C(=O)N1C [Example 190] (cyclo([X6]W[Phe(4-COOH)]G[Pro(4R-NH2)][1Nal(3S-Me)]D[dNMeA]G[Bip(4'-COOH)][Cha]G[dDab][hTyr])) | 0.018 nM |
| C[C@@H]1C(=O)NCC(=O)N[C@@H](Cc2ccc(-c3ccc(C(=O)O)cc3)cc2)C(=O)N[C@@H](Cc2ccncc2)C(=O)NCC(=O)N[C@H](CCN)C(=O)N[C@@H](CCC2CCCCC2)C(=O)N[C@@H](Cc2ccc([C@H]3CC[C@@H](C(=O)O)CC3)cc2)C(=O)N[C@@H](Cc2c[nH]c3ccccc23)C(=O)N[C@@H](Cc2ccc(C(=O)O)cc2)C(=O)NCC(=O)N2C[C@H](N)C[C@H]2C(=O)N[C@@H]([C@@H](C)c2cccc3ccccc23)C(=O)N[C@@H](CC(=O)O)C(=O)N1C [Example 191] (cyclo([Phe(4-(cis-4-COOH-cHex))]W[Phe(4-COOH)]G[Pro(4R-NH2)][1Nal(3S-Me)]D[dNMeA]G[Bip(4'-COOH)][4Pal]G[dDab][hCha])) | 0.019 nM |
| C[C@@H]1C(=O)NCC(=O)N[C@@H](Cc2ccc(-c3ccc(C(=O)O)cc3)cc2)C(=O)N[C@@H](Cc2ccncc2)C(=O)NCC(=O)N[C@H](CCN)C(=O)N[C@@H](CCC2CCCCC2)C(=O)N[C@@H](Cc2ccc([C@H]3CC[C@H](C(=O)O)CC3)cc2)C(=O)N[C@@H](Cc2c[nH]c3cc(F)ccc23)C(=O)N[C@@H](Cc2ccc(C(=O)O)cc2)C(=O)NCC(=O)N2C[C@H](N)C[C@H]2C(=O)N[C@@H]([C@@H](C)c2cccc3ccccc23)C(=O)N[C@@H](CC(=O)O)C(=O)N1C [Example 192] (cyclo([Phe(4-(trans-4-COOH-cHex))][Trp(6-F)][Phe(4-COOH)]G[Pro(4R-NH2)][1Nal(3S-Me)]D[dNMeA]G[Bip(4'-COOH)][4Pal]G[dDab][hCha])) | 0.015 nM |
| C[C@@H]1C(=O)NCC(=O)N[C@@H](Cc2ccc(-c3ccc(C(=O)O)cc3)cc2)C(=O)N[C@@H](Cc2ccncc2)C(=O)N[C@@H](CO)C(=O)N[C@H](CCN)C(=O)N[C@@H](CCC2CCCCC2)C(=O)N[C@@H](Cc2ccc([C@H]3CC[C@H](C(=O)O)CC3)cc2)C(=O)N[C@@H](Cc2c[nH]c3cc(F)ccc23)C(=O)N[C@@H](Cc2ccc(C(=O)O)cc2)C(=O)NCC(=O)N2C[C@H](N)C[C@H]2C(=O)N[C@@H]([C@@H](C)c2cccc3ccccc23)C(=O)N[C@@H](CC(=O)O)C(=O)N1C [Example 193] (cyclo([Phe(4-(trans-4-COOH-cHex))][Trp(6-F)][Phe(4-COOH)]G[Pro(4R-NH2)][1Nal(3S-Me)]D[dNMeA]G[Bip(4'-COOH)][4Pal]S[dDab][hCha])) | 0.012 nM |
| C[C@@H]1C(=O)NCC(=O)N[C@@H](Cc2ccc(-c3ccc(C(=O)O)cc3)cc2)C(=O)N[C@@H](Cc2ccncc2)C(=O)NCC(=O)N[C@H](CCN)C(=O)N[C@@H](CCC2CCCCC2)C(=O)N[C@@H](Cc2ccc([C@H]3CC[C@H](C(=O)O)CC3)cc2)C(=O)N[C@@H](Cc2c[nH]c3ccccc23)C(=O)N[C@@H](Cc2ccc(C(=O)O)cc2)C(=O)NCC(=O)N2C[C@H](N)C[C@H]2C(=O)N[C@@H]([C@@H](C)c2cccc3ccccc23)C(=O)N[C@@H](CC(=O)O)C(=O)N1C [Example 196] (cyclo([Phe(4-(trans-4-COOH-cHex))]W[Phe(4-COOH)]G[Pro(4R-NH2)][1Nal(3S-Me)]D[dNMeA]G[Bip(4'-COOH)][4Pal]G[dDab][hCha])) | 0.03 nM |
| CCCC[C@@H]1NC(=O)[C@@H](CCN)NC(=O)CNC(=O)[C@H](Cc2ccncc2)NC(=O)[C@H](Cc2ccc(-c3ccc(C(=O)O)cc3)cc2)NC(=O)CNC(=O)[C@@H](C)N(C)C(=O)[C@H](CC(=O)O)NC(=O)[C@H]([C@@H](C)c2cccc3ccccc23)NC(=O)[C@@H]2C[C@@H](N)CN2C(=O)CNC(=O)[C@H](Cc2ccc(C(=O)O)cc2)NC(=O)[C@H](Cc2c[nH]c3ccccc23)NC(=O)[C@H](Cc2ccc([C@H]3CC[C@H](C(=O)O)CC3)cc2)NC1=O [Example 197] (cyclo([Phe(4-(trans-4-COOH-cHex))]W[Phe(4-COOH)]G[Pro(4R-NH2)][1Nal(3S-Me)]D[dNMeA]G[Bip(4'-COOH)][4Pal]G[dDab][Nle])) | 0.024 nM |
